Values quoted from earlier work as cited in patent US6900176B2, “Pest control agents/depsipeptides” (priority 1999, dated 2005).

Tested on: silkworms
Settings: known from the literature (Kanaoka et al. 1979; JP 05 271 013)

Structure (SMILES) | insecticidal activity against silkworms
CC(C)C[C@H]1C(=O)O[C@H](Cc2ccccc2)C(=O)N(C)[C@@H](CC(C)C)C(=O)O[C@H](C)C(=O)N(C)[C@@H](CC(C)C)C(=O)O[C@H](Cc2ccccc2)C(=O)N(C)[C@@H](CC(C)C)C(=O)O[C@H](C)C(=O)N1C [PF1022A] | insecticidal activity
CC(C)C[C@H]1C(=O)O[C@H](C(C)C)C(=O)N(C)[C@@H](CC(C)C)C(=O)O[C@H](C(C)C)C(=O)N(C)[C@@H](CC(C)C)C(=O)O[C@H](C(C)C)C(=O)N(C)[C@@H](CC(C)C)C(=O)O[C@H](C(C)C)C(=O)N1C [bassianolide] | insecticidal activity
